Assay results published in ChEMBL document CHEMBL1201862, “PubChem BioAssay data set” (2004).
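Protocol summary: plate cells (96-well), add compound at 5 concentrations, incubate 48 h, interpolate endpoints linearly. GI50: concentration for 50% inhibition of growth.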 The source made the active and inactive calls. No stated cut-off is given here; in the data, active = GI50 up to about 1.1 µM and inactive = higher.

Legend:
Assay in all cases: growth of human tumour cells (NCI), 48 h
IGROV-1 = test system: IGROV-1
RXF 631 = test system: RXF 631
ACHN = test system: ACHN
SK-OV-3 = test system: SK-OV-3
RXF 393 = test system: RXF 393
A498 = test system: A498
SF-268 = test system: SF-268
COLO 205 = test system: COLO 205
OVCAR-5 = test system: OVCAR-5
XF498 = test system: XF498
HOP-62 = test system: HOP-62
786-0 = test system: 786-0
SK-MEL-28 = test system: SK-MEL-28
UACC-62 = test system: UACC-62
Malme-3M = test system: Malme-3M
RPMI-8226 = test system: RPMI-8226
SN12C = test system: SN12C
M19-MEL = test system: M19-MEL
SF-539 = test system: SF-539
SK-MEL-2 = test system: SK-MEL-2
DMS-114 = test system: DMS-114
KM12 = test system: KM12
UO-31 = test system: UO-31
HT-29 = test system: HT-29
OVCAR-3 = test system: OVCAR-3
DLD-1 = test system: DLD-1
NCI-H460 = test system: NCI-H460
A549 = test system: A549
OVCAR-4 = test system: OVCAR-4
CCRF-CEM = test system: CCRF-CEM
KM-20L2 = test system: KM-20L2
HOP-92 = test system: HOP-92
SNB-75 = test system: SNB-75
CAKI-1 = test system: CAKI-1
NCI-H23 = test system: NCI-H23
K562 = test system: K562
M14 = test system: M14
HCC 2998 = test system: HCC 2998
SK-MEL-5 = test system: SK-MEL-5
SNB-78 = test system: SNB-78
HL-60 = test system: HL-60
LXFL 529 = test system: LXFL 529
SW-620 = test system: SW-620
U-251 = test system: U-251
UACC-257 = test system: UACC-257
SF-295 = test system: SF-295
MOLT-4 = test system: MOLT-4
NCI-H226 = test system: NCI-H226
DMS-273 = test system: DMS-273
LOX IMVI = test system: LOX IMVI
HOP-18 = test system: HOP-18
HCT-15 = test system: HCT-15
SR = test system: SR
NCI-H522 = test system: NCI-H522
OVCAR-8 = test system: OVCAR-8
HCT-116 = test system: HCT-116
EKVX = test system: EKVX
TK-10 = test system: TK-10
SNB-19 = test system: SNB-19

For `COC1(OC)CC2OC1C1N=NN(C(=O)OC(C)(C)C)C21` (stereo not given), the GI50 (IGROV-1) was > 100 µM (inactive), the GI50 (RXF 631) was > 100 µM (inactive) and the GI50 (ACHN) was > 100 µM (inactive). For the same compound, the GI50 (SK-OV-3) was > 100 µM (inactive), the GI50 (RXF 393) was > 100 µM (inactive) and the GI50 (A498) was > 100 µM (inactive). For the same compound, the GI50 (SF-268) was > 100 µM (inactive), the GI50 (COLO 205) was > 100 µM (inactive) and the GI50 (OVCAR-5) was > 100 µM (inactive). For the same compound, the GI50 (XF498) was > 100 µM (inactive), the GI50 (HOP-62) was > 100 µM (inactive) and the GI50 (786-0) was > 100 µM (inactive). For the same compound, the GI50 (SK-MEL-28) was > 100 µM (inactive), the GI50 (UACC-62) was > 100 µM (inactive) and the GI50 (Malme-3M) was > 100 µM (inactive). The GI50 (RPMI-8226) was 52.7 µM (inactive), the GI50 (SN12C) was > 100 µM (inactive) and the GI50 (M19-MEL) was > 100 µM (inactive). For the same compound, the GI50 (SF-539) was > 100 µM (inactive), the GI50 (SK-MEL-2) was > 100 µM (inactive) and the GI50 (DMS-114) was 67 µM (inactive). The GI50 (KM12) was > 100 µM (inactive), the GI50 (UO-31) was > 100 µM (inactive) and the GI50 (HT-29) was > 100 µM (inactive). The GI50 (OVCAR-3) was 49.3 µM (inactive), the GI50 (DLD-1) was 34.8 µM (inactive) and the GI50 (NCI-H460) was > 100 µM (inactive). For the same compound, the GI50 (A549) was > 100 µM (inactive), the GI50 (OVCAR-4) was > 100 µM (inactive) and the GI50 (CCRF-CEM) was 21.1 µM (inactive). For the same compound, the GI50 (KM-20L2) was > 100 µM (inactive), the GI50 (HOP-92) was > 100 µM (inactive) and the GI50 (SNB-75) was > 100 µM (inactive). The GI50 (CAKI-1) was > 100 µM (inactive), the GI50 (NCI-H23) was > 100 µM (inactive) and the GI50 (K562) was 36 µM (inactive). The GI50 (M14) was > 100 µM (inactive), the GI50 (HCC 2998) was > 100 µM (inactive) and the GI50 (SK-MEL-5) was > 100 µM (inactive). For the same compound, the GI50 (SNB-78) was > 100 µM (inactive), the GI50 (HL-60) was 24.3 µM (inactive) and the GI50 (LXFL 529) was > 100 µM (inactive). For the same compound, the GI50 (SW-620) was 57.5 µM (inactive), the GI50 (U-251) was > 100 µM (inactive) and the GI50 (UACC-257) was > 100 µM (inactive). For the same compound, the GI50 (SF-295) was > 100 µM (inactive), the GI50 (MOLT-4) was 35.2 µM (inactive) and the GI50 (NCI-H226) was > 100 µM (inactive). The GI50 (DMS-273) was > 100 µM (inactive), the GI50 (LOX IMVI) was > 100 µM (inactive) and the GI50 (HOP-18) was > 100 µM (inactive). The GI50 (HCT-15) was 43.7 µM.

With `NNC(=S)N/N=C(\CC1OC(=O)c2ccccc21)c1ccccc1O` (stereo not given) the GI50 (IGROV-1) was 38 µM (inactive), the GI50 (RXF 631) was 26.5 µM (inactive) and the GI50 (ACHN) was 59.3 µM (inactive). For the same compound, the GI50 (SK-OV-3) was > 100 µM (inactive), the GI50 (RXF 393) was 36.4 µM (inactive) and the GI50 (A498) was 33.7 µM (inactive). For the same compound, the GI50 (SF-268) was 50 µM (inactive), the GI50 (COLO 205) was 47 µM (inactive) and the GI50 (OVCAR-5) was 18.2 µM (inactive). The GI50 (XF498) was 34.2 µM (inactive), the GI50 (HOP-62) was 33 µM (inactive) and the GI50 (786-0) was 43.3 µM (inactive). For the same compound, the GI50 (SK-MEL-28) was 57.1 µM (inactive), the GI50 (UACC-62) was 35.5 µM (inactive) and the GI50 (Malme-3M) was 30.4 µM (inactive). For the same compound, the GI50 (SR) was 16.3 µM (inactive), the GI50 (SN12C) was 46.8 µM (inactive) and the GI50 (M19-MEL) was 20.7 µM (inactive). For the same compound, the GI50 (SF-539) was 19.5 µM (inactive), the GI50 (SK-MEL-2) was 26.8 µM (inactive) and the GI50 (DMS-114) was 58.1 µM (inactive). For the same compound, the GI50 (KM12) was 40.4 µM (inactive), the GI50 (UO-31) was 37.7 µM (inactive) and the GI50 (HT-29) was 61.5 µM (inactive). The GI50 (NCI-H522) was 22.8 µM (inactive), the GI50 (OVCAR-3) was 37.5 µM (inactive) and the GI50 (DLD-1) was 44.6 µM (inactive). For the same compound, the GI50 (NCI-H460) was 40.8 µM (inactive), the GI50 (A549) was 64.3 µM (inactive) and the GI50 (OVCAR-8) was 30.8 µM (inactive). The GI50 (OVCAR-4) was 88.7 µM (inactive), the GI50 (CCRF-CEM) was 25.9 µM (inactive) and the GI50 (KM-20L2) was 92.5 µM (inactive). For the same compound, the GI50 (HOP-92) was 70.8 µM (inactive), the GI50 (HCT-116) was 36.6 µM (inactive) and the GI50 (SNB-75) was 42.6 µM (inactive). The GI50 (CAKI-1) was 71.8 µM (inactive), the GI50 (NCI-H23) was 49.9 µM (inactive) and the GI50 (K562) was 60.5 µM (inactive). For the same compound, the GI50 (M14) was 61.9 µM (inactive), the GI50 (HCC 2998) was 32.7 µM (inactive) and the GI50 (SK-MEL-5) was 42.3 µM (inactive). For the same compound, the GI50 (SNB-78) was 33 µM (inactive), the GI50 (HL-60) was 24.4 µM (inactive) and the GI50 (LXFL 529) was 53.1 µM (inactive). The GI50 (SW-620) was 55.7 µM (inactive), the GI50 (EKVX) was 78.7 µM (inactive) and the GI50 (U-251) was 17.3 µM (inactive). The GI50 (UACC-257) was > 100 µM (inactive), the GI50 (SF-295) was 20.3 µM (inactive) and the GI50 (TK-10) was > 100 µM (inactive). For the same compound, the GI50 (MOLT-4) was 23 µM (inactive), the GI50 (NCI-H226) was 33.6 µM (inactive) and the GI50 (SNB-19) was 32.4 µM (inactive). The GI50 (DMS-273) was 50.9 µM (inactive), the GI50 (LOX IMVI) was 17.6 µM (inactive) and the GI50 (HOP-18) was 94.4 µM (inactive). It also gave a GI50 (HCT-15) of 55.8 µM.

In the case of `CC(=O)Nc1ccc(/C=c2\sc3nnc(/C=C/c4ccccc4)n3c2=O)cc1`, the GI50 (IGROV-1) is reported as > 50 µM (inactive), the GI50 (RXF 631) is reported as > 50 µM (inactive) and the GI50 (ACHN) is reported as > 50 µM (inactive). The GI50 (SK-OV-3) was > 50 µM (inactive), the GI50 (RXF 393) was > 50 µM (inactive) and the GI50 (A498) was > 50 µM (inactive). The GI50 (SF-268) was > 50 µM (inactive), the GI50 (COLO 205) was > 50 µM (inactive) and the GI50 (OVCAR-5) was > 50 µM (inactive). The GI50 (XF498) was > 50 µM (inactive), the GI50 (HOP-62) was > 50 µM (inactive) and the GI50 (786-0) was > 50 µM (inactive). The GI50 (SK-MEL-28) was > 50 µM (inactive), the GI50 (UACC-62) was > 50 µM (inactive) and the GI50 (Malme-3M) was > 50 µM (inactive). The GI50 (RPMI-8226) was > 50 µM (inactive), the GI50 (SN12C) was > 50 µM (inactive) and the GI50 (M19-MEL) was > 50 µM (inactive). For the same compound, the GI50 (SF-539) was > 50 µM (inactive), the GI50 (SK-MEL-2) was > 50 µM (inactive) and the GI50 (DMS-114) was > 50 µM (inactive). For the same compound, the GI50 (KM12) was > 50 µM (inactive), the GI50 (UO-31) was > 50 µM (inactive) and the GI50 (NCI-H522) was > 50 µM (inactive). For the same compound, the GI50 (OVCAR-3) was > 50 µM (inactive), the GI50 (DLD-1) was > 50 µM (inactive) and the GI50 (NCI-H460) was > 50 µM (inactive). The GI50 (A549) was > 50 µM (inactive), the GI50 (OVCAR-8) was > 50 µM (inactive) and the GI50 (OVCAR-4) was > 50 µM (inactive). The GI50 (CCRF-CEM) was > 50 µM (inactive), the GI50 (KM-20L2) was > 50 µM (inactive) and the GI50 (HCT-116) was > 50 µM (inactive). For the same compound, the GI50 (SNB-75) was > 50 µM (inactive), the GI50 (CAKI-1) was > 50 µM (inactive) and the GI50 (NCI-H23) was > 50 µM (inactive). For the same compound, the GI50 (K562) was > 50 µM (inactive), the GI50 (M14) was > 50 µM (inactive) and the GI50 (HCC 2998) was > 50 µM (inactive). The GI50 (SK-MEL-5) was > 50 µM (inactive), the GI50 (SNB-78) was > 50 µM (inactive) and the GI50 (HL-60) was > 50 µM (inactive). The GI50 (LXFL 529) was > 50 µM (inactive), the GI50 (SW-620) was > 50 µM (inactive) and the GI50 (EKVX) was > 50 µM (inactive). For the same compound, the GI50 (U-251) was > 50 µM (inactive), the GI50 (UACC-257) was > 50 µM (inactive) and the GI50 (SF-295) was > 50 µM (inactive). For the same compound, the GI50 (TK-10) was > 50 µM (inactive), the GI50 (MOLT-4) was > 50 µM (inactive) and the GI50 (NCI-H226) was > 50 µM (inactive). The GI50 (SNB-19) was > 50 µM (inactive), the GI50 (DMS-273) was > 50 µM (inactive) and the GI50 (LOX IMVI) was > 50 µM (inactive). The GI50 (HOP-18) was 17.1 µM (inactive).
